US20240174723A1, “STAPLED ANTIMICROBIAL PEPTIDES (STAMPS) AND USES THEREOF” (Lytica Therapeutics, Inc., priority 2021, published 2024)
In brackets after ≈: the same amount, converted by molar mass. Positions of bridges follow the written chain, without caps; N, C: chain ends. Non-standard residues stand in square brackets, D forms with d. Residues, ends and D or L forms follow the SMILES beside them. S5 = C=CCCC[C@](C)(N)C(=O)O; Orn = NCCC[C@H](N)C(=O)O

Columns and labels:
K. pneumoniae = assay type: cell-based, Klebsiella pneumoniae
Procedure, shortened: (§1)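 MIC is the minimum StAMP concentration showing no visible growth after 20-24 h incubation at 37° C. Serially diluted peptides met bacteria regrown 3-4 h after overnight culture, at 5×10^5 CFU/ml final, in Mueller-Hinton broth or its cation-adjusted form, per a modified CLSI microdilution.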

S. aureus = assay type: cell-based, Staphylococcus aureus
Procedure, shortened: as §1

A. baumannii = assay type: cell-based, Acinetobacter baumannii
Procedure, shortened: as §1

E. coli = assay type: cell-based, Escherichia coli
Procedure, shortened: as §1

P. aeruginosa = assay type: cell-based, Pseudomonas aeruginosa
Procedure, shortened: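 MIC taken as lowest peptide concentration with no visible growth after 20-24 h at 37 °C. Peptide serial dilutions from water stocks met P. aeruginosa inoculum (5×10^5 CFU/ml final) in MHB or MHB II, per a CLSI-adapted microbroth protocol.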

in vitro [1] = assay type: cell-based; conditions: human, Inhibitory Concentration at 50% Cytotoxicity (IC50) Human Liver Cells (HepG2)
Procedure, shortened: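 Cytotoxicity read by CellTiter-Glo luminescence after 48 h at 37 °C exposure to serially diluted StAMPs or vehicle. HepG2 cells were grown in EMEM plus 10% FBS and given 4 h to attach before dosing; peptides came from a 5 mg/mL aqueous stock.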

in vitro [2] = assay type: cell-based; conditions: human
Procedure, shortened: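 LDH release (absorbance at 490 nm) measured in the media of cells treated with serially diluted StAMPs or vehicle at 37 °C: 90 min for renal RPTEC, 48 h for liver HepG2. Cells were seeded overnight beforehand and media refreshed before dosing.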

Compound	Minimum Inhibitory Concentration (MIC) K. pneumoniae (K. pneumoniae)	Minimum Inhibitory Concentration (MIC) S. aureus (S. aureus)	Minimum Inhibitory Concentration (MIC) A. baumannii (A. baumannii)	Minimum Inhibitory Concentration (MIC) E. coli (E. coli)	Minimum Inhibitory Concentration (MIC) P. aeruginosa (P. aeruginosa)	IC50 at 48 hours (in vitro [1])	IC50 at 90 min (in vitro [2])
CC(C)[C@@H]1NC(=O)[C@@](C)(NC(=O)[C@H](C)NC(=O)[C@H](CCCCN)NC(=O)CNC(=O)[C@H](Cc2ccccc2)NC(=O)[C@H](CCCCN)NC(=O)[C@H](CCCCN)NC(=O)[C@H](CCCCN)NC(=O)[C@@H](NC(=O)[C@H](Cc2c[nH]cn2)NC(=O)[C@]2(C)CCCC=CCCC[C@](C)(NC(=O)CN)C(=O)NCC(=O)N[C@@H](CCCCN)C(=O)N[C@@H](Cc3ccccc3)C(=O)N2)[C@@H](C)O)CCCC=CCCC[C@@](C)(C(=O)N[C@@H](C)C(=O)N[C@@H](CCCCN)C(=O)N[C@@H](CCCCN)C(N)=O)NC(=O)[C@H](CCC(=O)O)NC(=O)CNC1=O [compound 8] (H-G[S5]GKF[S5]HTKKKFGKA[S5]VGE[S5]AKK-NH2; staple 2-6, 16-20)	>64 µg/mL	>64 µg/mL	4 µg/mL	8 µg/mL	8 µg/mL	> 200 µg/mL	> 200 µg/mL
CC(C)[C@@H]1NC(=O)[C@@](C)(NC(=O)[C@H](C)NC(=O)[C@H](CCCCN)NC(=O)CNC(=O)[C@H](Cc2ccccc2)NC(=O)[C@H](CCCCN)NC(=O)[C@H](CCCCN)NC(=O)[C@H](CCCCN)NC(=O)[C@H](CO)NC(=O)[C@H](Cc2c[nH]cn2)NC(=O)[C@]2(C)CCCC=CCCC[C@](C)(NC(=O)CN)C(=O)NCC(=O)N[C@@H](CCCCN)C(=O)N[C@@H](Cc3ccccc3)C(=O)N2)CCCC=CCCC[C@@](C)(C(=O)N[C@@H](C)C(=O)N[C@@H](CCCCN)C(=O)N[C@@H](CCCCN)C(N)=O)NC(=O)[C@H](CCC(=O)O)NC(=O)[C@H]([C@@H](C)O)NC1=O [compound 15] (H-G[S5]GKF[S5]HSKKKFGKA[S5]VTE[S5]AKK-NH2; staple 2-6, 16-20)	16 µg/mL	>64 µg/mL	2 µg/mL	6 µg/mL	8 µg/mL	> 200 µg/mL	> 200 µg/mL
CC(C)[C@@H]1NC(=O)[C@@](C)(NC(=O)[C@H](C)NC(=O)[C@H](CCCCN)NC(=O)[C@H](Cc2c[nH]c3ccccc23)NC(=O)[C@H](Cc2c[nH]c3ccccc23)NC(=O)[C@H](CCCCN)NC(=O)[C@H](CCCCN)NC(=O)[C@H](CCCCN)NC(=O)[C@H](CO)NC(=O)[C@H](Cc2c[nH]cn2)NC(=O)[C@]2(C)CCCC=CCCC[C@](C)(NC(=O)CN)C(=O)NCC(=O)N[C@@H](CCCCN)C(=O)N[C@@H](Cc3ccccc3)C(=O)N2)CCCC=CCCC[C@@](C)(C(=O)N[C@@H](C)C(=O)N[C@@H](CCCCN)C(=O)N[C@@H](CCCCN)C(N)=O)NC(=O)[C@H](CCC(=O)O)NC(=O)CNC1=O [compound 62] (H-G[S5]GKF[S5]HSKKKWWKA[S5]VGE[S5]AKK-NH2; staple 2-6, 16-20)	8 µg/mL	>64 µg/mL	4 µg/mL	16 µg/mL	16 µg/mL	35 µg/mL (≈ 13 µM)	30 µg/mL (≈ 11.1 µM)
CC(C)[C@@H]1NC(=O)[C@@](C)(NC(=O)[C@H](C)NC(=O)[C@H](CCCCN)NC(=O)CNC(=O)[C@H](Cc2ccccc2)NC(=O)[C@H](CCCCN)NC(=O)[C@H](CCCCN)NC(=O)[C@H](CCCCN)NC(=O)[C@H](CO)NC(=O)[C@H](CCCCN)NC(=O)[C@]2(C)CCCC=CCCC[C@](C)(NC(=O)CN)C(=O)NCC(=O)N[C@@H](CCCCN)C(=O)N[C@@H](Cc3ccccc3)C(=O)N2)CCCC=CCCC[C@@](C)(C(=O)N[C@@H](C)C(=O)N[C@@H](CCCCN)C(=O)N[C@@H](CCCCN)C(N)=O)NC(=O)[C@H](CCC(=O)O)NC(=O)CNC1=O [compound 2] (H-G[S5]GKF[S5]KSKKKFGKA[S5]VGE[S5]AKK-NH2; staple 2-6, 16-20)	4 µg/mL	64 µg/mL	2 µg/mL	2 µg/mL	4 µg/mL	143 µg/mL (≈ 56.7 µM)	116 µg/mL (≈ 46 µM)
CC(C)[C@@H]1NC(=O)[C@@](C)(NC(=O)[C@H](C)NC(=O)[C@H](CCCN)NC(=O)CNC(=O)[C@H](Cc2ccccc2)NC(=O)[C@H](CCCN)NC(=O)[C@H](CCCN)NC(=O)[C@H](CCCN)NC(=O)[C@H](CCCN)NC(=O)[C@H](CCCN)NC(=O)[C@]2(C)CCCC=CCCC[C@](C)(NC(=O)CN)C(=O)NCC(=O)N[C@@H](CCCN)C(=O)N[C@@H](Cc3ccccc3)C(=O)N2)CCCC=CCCC[C@@](C)(C(=O)N[C@@H](C)C(=O)N[C@@H](CCCN)C(=O)N[C@@H](CCCN)C(N)=O)NC(=O)[C@H](CCC(=O)O)NC(=O)CNC1=O [compound 24] (H-G[S5]G[Orn]F[S5][Orn][Orn][Orn][Orn][Orn]FG[Orn]A[S5]VGE[S5]A[Orn][Orn]-NH2; staple 2-6, 16-20)	32 µg/mL	64 µg/mL	2 µg/mL	4 µg/mL	2 µg/mL	44 µg/mL (≈ 18 µM)	100 µg/mL (≈ 41 µM)
C[C@H](NC(=O)[C@H](CCCCN)NC(=O)CNC(=O)[C@H](Cc1ccccc1)NC(=O)[C@H](CCCCN)NC(=O)[C@H](CCCCN)NC(=O)[C@H](CCCCN)NC(=O)[C@H](CO)NC(=O)[C@H](Cc1c[nH]cn1)NC(=O)[C@]1(C)CCCC=CCCC[C@](C)(NC(=O)CN)C(=O)NCC(=O)N[C@@H](CCCCN)C(=O)N[C@@H](Cc2ccccc2)C(=O)N1)C(=O)N[C@@]1(C)CCCC=CCCC[C@@](C)(C(=O)N[C@@H](C)C(=O)N[C@@H](CCCCN)C(=O)N[C@@H](CCCCN)C(N)=O)NC(=O)[C@H](CCC(=O)O)NC(=O)CNC(=O)[C@H](Cc2c[nH]c3ccccc23)NC1=O [compound 64] (H-G[S5]GKF[S5]HSKKKFGKA[S5]WGE[S5]AKK-NH2; staple 2-6, 16-20)	32 µg/mL	16 µg/mL	4 µg/mL	4 µg/mL	8 µg/mL	> 200 µg/mL	> 200 µg/mL
CC(C)[C@@H]1NC(=O)[C@@](C)(NC(=O)[C@H](C)NC(=O)[C@H](CCCCN)NC(=O)CNC(=O)[C@H](Cc2ccccc2)NC(=O)[C@H](CCCCN)NC(=O)[C@H](CCCCN)NC(=O)[C@H](CCCCN)NC(=O)[C@H](CCCCN)NC(=O)[C@H](CCCCN)NC(=O)[C@]2(C)CCCC=CCCC[C@](C)(NC(=O)CN)C(=O)NCC(=O)N[C@@H](CCCCN)C(=O)N[C@@H](Cc3ccccc3)C(=O)N2)CCCC=CCCC[C@@](C)(C(=O)N[C@@H](CCCCN)C(N)=O)NC(=O)[C@H](CCC(=O)O)NC(=O)CNC1=O [compound 27] (H-G[S5]GKF[S5]KKKKKFGKA[S5]VGE[S5]K-NH2; staple 2-6, 16-20)	4 µg/mL	>64 µg/mL	4 µg/mL	4 µg/mL	4 µg/mL	117 µg/mL (≈ 49.5 µM)	100 µg/mL (≈ 42.3 µM)
CC(C)[C@@H]1NC(=O)[C@@](C)(NC(=O)[C@H](C)NC(=O)[C@H](CCCCN)NC(=O)CNC(=O)[C@H](Cc2ccccc2)NC(=O)[C@H](CCCCN)NC(=O)[C@H](CCCCN)NC(=O)[C@H](CCCCN)NC(=O)[C@H](CCCCN)NC(=O)[C@H](Cc2c[nH]cn2)NC(=O)[C@]2(C)CCCC=CCCC[C@](C)(NC(=O)CN)C(=O)NCC(=O)N[C@@H](CCCCN)C(=O)N[C@@H](Cc3ccccc3)C(=O)N2)CCCC=CCCC[C@@](C)(C(=O)N[C@@H](C)C(=O)N[C@@H](CCCCN)C(=O)N[C@@H](CCCCN)C(N)=O)NC(=O)[C@H](CCC(=O)O)NC(=O)CNC1=O [compound 3] (H-G[S5]GKF[S5]HKKKKFGKA[S5]VGE[S5]AKK-NH2; staple 2-6, 16-20)	16 µg/mL	>64 µg/mL	4 µg/mL	4 µg/mL	4 µg/mL	> 200 µg/mL	> 200 µg/mL
